Counter-ions that a name gives are not always drawn.
Biological target: T1, rat mGluR5 (Rattus norvegicus, UniProt P31424)
T1 construct: expressed in transfected cells
Assay: mGluR5 assay on HEK-expressing rat mGluR5 (fluorescent cell based Ca2+ mobilization assay)
Details: HEK-293 cells stably expressing rat mGluR5; no co-addition of glutamate; mean of at least three independent experiments in duplicate; read-out: Ca++ Flux (mean EC50)
Method: mGluR5 Assay on HEK-Expressing Rat mGluR5
Positive functional expression of HEK-293 cells stably expressing rat mGluR5 receptor was determined by measuring intracellular Ca^2+ changes using a Fluorometric Imaging Plate Reader (FLIPR, Molecular Devices, Sunnyvale, Calif.) in response to glutamate or selective known mGluR5 agonists and antagonists. Rat mGluR5 RT-PCR products in HEK-293 cells were sequenced and found 100% identical to rat mGluR5 Genbank reference sequence (NM_017012). HEK-293 cells expressing rmGluR5 were maintained in media containing DMEM, dialyzed Fetal Bovine Serum (10%), Glutamax™ (2 mM), Penicillin (100 units/ml), Streptomycin (100 μg/ml), Geneticin (100 μg/ml) and Hygromycin-B (40 μg/ml) at 37° C./5% CO2.
After one day of incubation, cells were washed with assay buffer containing: 142 mM NaCl, 6 mM KCl, 1 mM […], 1 mM CaCl2, 20 mM HEPES, 1 g/L glucose, 0.125 mM sulfinpyrazone, pH 7.4. After 60 min of loading with 4 uM Fluo-4 (TefLabs, Austin, Tex.), the cells were washed three times with 50 μl of PBS Buffer and resuspended in 45 μl of assay Buffer. The plates were then transferred to a Fluorometric Imaging Plate Reader (FLIPR, Molecular Devices, Sunnyvale, Calif.) for the assessment of intracellular calcium flux. After monitoring the baseline fluorescence for 10 seconds, increasing concentrations of representative compound (from 0.01 to 60 μM) of the present invention diluted in Assay Buffer (15 μl of 4× dilutions) was added to the cell. The final DMSO concentration in the assay was 0.3%. In each experiment, fluorescence was then monitored as a function of time for 3 minutes and the data analyzed using Microsoft Excel and GraphPad Prism. Each data point was also measured two times.
Under these experimental conditions, this HEK-rat mGluR5 cell line is able to directly detect positive allosteric modulators without the need of co-addition of glutamate or mGluR5 agonist.
The concentration-response curves of representative compounds of the present invention were generated using the Prism GraphPad software (Graph Pad Inc, San Diego, USA). The curves were fitted to a four-parameter logistic equation:
(Y=Bottom+(Top−Bottom)/(1+10̂((Log EC50−X)*Hill Slope)
allowing determination of EC50 values.
The Table 1 below represents the mean EC50 obtained from at least three independent experiments of selected molecules performed in duplicate.

T1 sequence (P31424 21-1171 isoform P31424-2 limits assumed): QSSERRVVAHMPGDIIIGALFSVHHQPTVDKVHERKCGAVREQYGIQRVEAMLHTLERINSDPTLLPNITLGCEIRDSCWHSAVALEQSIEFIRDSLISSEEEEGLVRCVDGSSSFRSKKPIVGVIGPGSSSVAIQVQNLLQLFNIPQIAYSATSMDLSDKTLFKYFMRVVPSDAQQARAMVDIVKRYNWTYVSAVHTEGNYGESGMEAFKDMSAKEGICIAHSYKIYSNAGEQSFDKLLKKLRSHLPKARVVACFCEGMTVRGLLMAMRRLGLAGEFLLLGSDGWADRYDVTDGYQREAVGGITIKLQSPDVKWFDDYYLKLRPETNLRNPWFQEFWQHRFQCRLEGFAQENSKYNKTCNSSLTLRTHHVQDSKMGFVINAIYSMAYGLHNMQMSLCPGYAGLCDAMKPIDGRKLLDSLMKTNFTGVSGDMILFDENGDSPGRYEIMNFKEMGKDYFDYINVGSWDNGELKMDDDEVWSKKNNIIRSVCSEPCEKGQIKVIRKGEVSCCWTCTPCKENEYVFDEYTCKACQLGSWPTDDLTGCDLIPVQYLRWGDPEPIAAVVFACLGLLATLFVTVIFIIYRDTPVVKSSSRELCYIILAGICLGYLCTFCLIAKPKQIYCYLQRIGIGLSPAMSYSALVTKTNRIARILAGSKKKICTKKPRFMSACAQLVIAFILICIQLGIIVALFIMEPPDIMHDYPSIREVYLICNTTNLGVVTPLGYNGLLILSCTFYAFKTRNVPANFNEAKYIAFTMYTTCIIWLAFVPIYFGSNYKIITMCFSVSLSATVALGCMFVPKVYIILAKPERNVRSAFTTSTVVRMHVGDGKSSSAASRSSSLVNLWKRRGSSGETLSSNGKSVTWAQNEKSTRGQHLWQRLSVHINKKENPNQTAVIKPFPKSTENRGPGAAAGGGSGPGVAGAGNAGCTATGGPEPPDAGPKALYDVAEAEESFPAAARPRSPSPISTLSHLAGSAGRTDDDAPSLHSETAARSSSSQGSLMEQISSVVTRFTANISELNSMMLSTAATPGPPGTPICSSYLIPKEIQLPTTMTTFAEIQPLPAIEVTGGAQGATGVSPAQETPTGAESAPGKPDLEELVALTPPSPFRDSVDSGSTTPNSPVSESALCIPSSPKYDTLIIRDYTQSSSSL

Row | Compound | EC50
1 | O=C(c1cccc(COc2ccccc2)c1)N1CCC[C@H](c2nc(-c3ccc(F)cc3)no2)C1 [Example 6, {(S)-3-[3-(4-Fluoro-phenyl)-[1,2,4]oxadiazol-5-yl]-piperidin-1-yl}-(3-phenoxymethyl-phenyl)-methanone] | > 10 µM
2 | O=C(C1CCc2cc(F)ccc21)N1CCC[C@H](c2nc(-c3ccc(F)cc3)no2)C1 (stereo partly drawn) [Example 8, (5-Fluoro-indan-1-yl)-{(S)-3-[3-(4-fluoro-phenyl)-[1,2,4]oxadiazol-5-yl]-piperidin-1-yl}-methanone] | > 10 µM
3 | Cc1nnsc1C(=O)N1CCC[C@H](c2nc(-c3ccc(F)cc3)no2)C1 [Example 13, {(S)-3-[3-(4-Fluoro-phenyl)-[1,2,4]oxadiazol-5-yl]-piperidin-1-yl}-(4-methyl-[1,2,3]thiadiazol-5-yl)-methanone] | 1 to 10 µM
4 | O=C(c1cccnc1F)N1CCC[C@H](c2nc(-c3ccc(F)cc3)no2)C1 [Example 14, {(S)-3-[3-(4-Fluoro-phenyl)-[1,2,4]oxadiazol-5-yl]-piperidin-1-yl}-(2-fluoro-pyridin-3-yl)-methanone] | 1 to 10 µM
5 | Cc1nc(C)c(C(=O)N2CCC[C@H](c3nc(-c4ccc(F)cc4)no3)C2)s1 [Example 18, (2,4-Dimethyl-thiazol-5-yl)-{(S)-3-[3-(4-fluoro-phenyl)-[1,2,4]oxadiazol-5-yl]-piperidin-1-yl}-methanone] | 1 to 10 µM
6 | CCc1ccccc1C(=O)N1CCC[C@H](c2nc(-c3ccc(F)cc3)no2)C1 [Example 20, (2-Ethyl-phenyl)-{3-[3-(4-fluoro-phenyl)-[1,2,4]oxadiazol-5-yl]-piperidin-1-yl}-methanone] | 1 to 10 µM
7 | Cc1c(C(=O)N2CCC[C@H](c3nc(-c4ccc(F)cc4)no3)C2)cnn1C [Example 21, (1,5-Dimethyl-1H-pyrazol-4-yl)-{(S)-3-[3-(4-fluoro-phenyl)-[1,2,4]oxadiazol-5-yl]-piperidin-1-yl}-methanone] | 1 to 10 µM
8 | COc1ccsc1C(=O)N1CCC[C@H](c2nc(-c3ccc(F)cc3)no2)C1 [Example 31, {(S)-3-[3-(4-Fluoro-phenyl)-[1,2,4]oxadiazol-5-yl]-piperidin-1-yl}-(3-methoxy-thiophen-2-yl)-methanone] | > 10 µM
9 | Cc1cc(F)ccc1C(=O)N1CCC[C@H](c2nc(-c3ccc(F)cc3)no2)C1 [Example 32, (4-Fluoro-2-methyl-phenyl)-{(S)-3-[3-(4-fluoro-phenyl)-[1,2,4]oxadiazol-5-yl]-piperidin-1-yl}-methanone] | < 1 µM
10 | Cc1cccc(-c2noc([C@H]3CCCN(C(=O)c4ccc(F)cc4)C3)n2)n1 [Example 33, (4-Fluoro-phenyl)-{(S)-3-[3-(6-methyl-pyridin-2-yl)-[1,2,4]oxadiazol-5-yl]-piperidin-1-yl}-methanone] | 1 to 10 µM
11 | Cc1ccc(-c2noc([C@H]3CCCN(C(=O)c4ccc(F)cc4)C3)n2)o1 [Example 34, (4-Fluoro-phenyl)-{(S)-3-[3-(5-methyl-furan-2-yl)-[1,2,4]oxadiazol-5-yl]-piperidin-1-yl}-methanone] | 1 to 10 µM
12 | O=C(c1ccc(F)cc1)N1CCC[C@H](c2nc(-c3cccs3)no2)C1 [Example 37, (4-Fluoro-phenyl)-[(S)-3-(3-thiophen-2-yl-[1,2,4]oxadiazol-5-yl)-piperidin-1-yl]-methanone] | < 1 µM
13 | Cc1cccnc1-c1noc([C@H]2CCCN(C(=O)c3ccc(F)cc3)C2)n1 [Example 40, (4-Fluoro-phenyl)-{(S)-3-[3-(3-methyl-pyridin-2-yl)-[1,2,4]oxadiazol-5-yl]-piperidin-1-yl}-methanone] | > 10 µM
14 | O=C(c1c[nH]nc1C(F)(F)F)N1CCC[C@H](c2nc(-c3ccc(F)cc3)no2)C1 [Example 41, {(S)-3-[3-(4-Fluoro-phenyl)-[1,2,4]oxadiazol-5-yl]-piperidin-1-yl}-(3-trifluoromethyl-1H-pyrazol-4-yl)-methanone] | > 10 µM
15 | CNc1cc(F)ccc1C(=O)N1CCC[C@H](c2nc(-c3ccc(F)cc3)no2)C1 [Example 42, (4-Fluoro-2-methylamino-phenyl)-{(S)-3-[3-(4-fluoro-phenyl)-[1,2,4]oxadiazol-5-yl]-piperidin-1-yl}-methanone] | > 10 µM
16 | Cc1oncc1C(=O)N1CCC[C@H](c2nc(-c3ccsc3)no2)C1 [Example 44, (5-Methyl-isoxazol-4-yl)-[(S)-3-(3-thiophen-3-yl-[1,2,4]oxadiazol-5-yl)-piperidin-1-yl]-methanone] | < 1 µM
17 | CCc1oncc1C(=O)N1CCC[C@H](c2nc(-c3ccc(F)cc3)no2)C1 [Example 46, (5-Ethyl-isoxazol-4-yl)-{(S)-3-[3-(4-fluoro-phenyl)-[1,2,4]oxadiazol-5-yl]-piperidin-1-yl}-methanone] | 1 to 10 µM
18 | COCc1oncc1C(=O)N1CCC[C@H](c2nc(-c3ccc(F)cc3)no2)C1 [Example 47, {(S)-3-[3-(4-Fluoro-phenyl)-[1,2,4]oxadiazol-5-yl]-piperidin-1-yl}-(5-methoxymethyl-isoxazol-4-yl)-methanone] | 1 to 10 µM
19 | Cc1ccccc1-c1noc([C@H]2CCCN(C(=O)c3ccc(F)cc3)C2)n1 [Example 48, (4-Fluoro-phenyl)-[(S)-3-(3-o-tolyl-[1,2,4]oxadiazol-5-yl)-piperidin-1-yl]-methanone] | > 10 µM
20 | CNc1ccccc1C(=O)N1CCC[C@H](c2nc(-c3ccc(F)cc3)no2)C1 [Example 49, {(S)-3-[3-(4-Fluoro-phenyl)-[1,2,4]oxadiazol-5-yl]-piperidin-1-yl}-(2-methylamino-phenyl)-methanone] | 1 to 10 µM

More lines, now with the values ahead:

Row | EC50 | Compound
21 | 1 to 10 µM | Cc1nocc1C(=O)N1CCC[C@H](c2nc(-c3ccc(F)cc3)no2)C1 [Example 4, (S)-{3-[3-(4-Fluoro-phenyl)-[1,2,4]oxadiazol-5-yl]-piperidin-1-yl}-(3-methyl-isoxazol-4-yl)-methanone]
22 | 1 to 10 µM | O=C(c1ccccn1)N1CCC[C@H](c2nc(-c3ccc(F)cc3)no2)C1 [Example 15, {(S)-3-[3-(4-Fluoro-phenyl)-[1,2,4]oxadiazol-5-yl]-piperidin-1-yl}-pyridin-2-yl-methanone hydrochloride]
23 | 1 to 10 µM | Cc1ccccc1C(=O)N1CCC[C@H](c2nc(-c3ccc(F)cc3)no2)C1 [Example 19, {(S)-3-[3-(4-Fluoro-phenyl)-[1,2,4]oxadiazol-5-yl]-piperidin-1-yl}-o-tolyl-methanone]
24 | 1 to 10 µM | O=C(c1ccoc1)N1CCC[C@H](c2nc(-c3ccc(F)cc3)no2)C1 [Example 22, {(S)-3-[3-(4-Fluoro-phenyl)-[1,2,4]oxadiazol-5-yl]-piperidin-1-yl}-furan-3-yl-methanone]
25 | 1 to 10 µM | Cc1occc1C(=O)N1CCC[C@H](c2nc(-c3ccc(F)cc3)no2)C1 [Example 24, {(S)-3-[3-(4-Fluoro-phenyl)-[1,2,4]oxadiazol-5-yl]-piperidin-1-yl}-(2-methyl-furan-3-yl)-methanone]
26 | 1 to 10 µM | O=C(c1ccsc1Br)N1CCC[C@H](c2nc(-c3ccc(F)cc3)no2)C1 [Example 28, (S)-(2-Bromo-thiophen-3-yl)-{3-[3-(4-fluoro-phenyl)-[1,2,4]oxadiazol-5-yl]-piperidin-1-yl}-methanone]
27 | 1 to 10 µM | Cc1ccoc1C(=O)N1CCC[C@H](c2nc(-c3ccc(F)cc3)no2)C1 [Example 30, (S)-{3-[3-(4-Fluoro-phenyl)-[1,2,4]oxadiazol-5-yl]-piperidin-1-yl}-(3-methyl-furan-2-yl)-methanone]
28 | 1 to 10 µM | O=C(c1ccc(F)cc1)N1CCC[C@H](c2nc(-c3ccco3)no2)C1 [Example 35, (4-Fluoro-phenyl)-[(S)-3-(3-furan-2-yl-[1,2,4]oxadiazol-5-yl)-piperidin-1-yl]-methanone]
29 | 1 to 10 µM | Cc1sccc1C(=O)N1CCC[C@H](c2nc(-c3ccc(F)cc3)no2)C1 [Example 36, {(S)-3-[3-(4-Fluoro-phenyl)-[1,2,4]oxadiazol-5-yl]-piperidin-1-yl}-(2-methyl-thiophen-3-yl)-methanone]
30 | < 1 µM | O=C(c1ccc(F)cc1)N1CCC[C@H](c2nc(-c3ccsc3)no2)C1 [Example 38, (4-Fluoro-phenyl)-[(S)-3-(3-thiophen-3-yl-[1,2,4]oxadiazol-5-yl)-piperidin-1-yl]-methanone]
31 | 1 to 10 µM | Cn1cccc1-c1noc([C@H]2CCCN(C(=O)c3ccc(F)cc3)C2)n1 [Example 39, (4-Fluoro-phenyl)-{(S)-3-[3-(1-methyl-1H-pyrrol-2-yl)-[1,2,4]oxadiazol-5-yl]-piperidin-1-yl}-methanone]

From patent US20090197897A1, “Novel Oxadiazole Derivatives and Their Use as Positive Allosteric Modulators of Metabotropic Glutamate Receptors” (Addex Pharma SA, priority 2005, published 2009)
